# Measured values: patent publication US6686355B2, “Biphenyl sulfonamides useful as matrix metalloproteinase inhibitors” (Warner-Lambert Company, priority 2001, dated 2004)
# Experiments:
# Type in all cases: biochemical
# [1] = target: MMP-14CD (catalytic domain of MMP-14) (Homo sapiens, UniProt P50281); assay: Thiopeptolide hydrolysis assay, MMP-14CD; conditions: thiopeptolide substrate, HEPES pH 7.0, 22° C.
# Excerpt: (§1) The assays measure the amount by which a test compound reduces the hydrolysis of a thiopeptolide substrate catalyzed by a matrix metalloproteinase enzyme. Such assays are described in detail by Ye et al., in Biochemistry, 1992;31(45):11231-11235, which is incorporated herein by reference.
# (§2) Thiopeptolide substrates show virtually no decomposition or hydrolysis at or below neutral pH in the absence of a matrix metalloproteinase enzyme. A typical thiopeptolide substrate commonly utilized for assays is Ac-Pro-Leu-Gly-thioester-Leu-Leu-Gly-OEt. A 100 μL assay mixture will contain 50 mM of N-2-hydroxyethylpiperazine-N′-2-ethanesulfonic acid buffer (“HEPES”) at pH 7.0, 10 mM CaCl2, 100 μM thiopeptolide substrate, and 1 mM 5,5″-dithio-bis-(2-nitro-benzoic acid) (DTNB). The thiopeptolide substrate concentration may be varied from, for example, 10 to 800 μM to obtain Km and Kcat values. The change in absorbance at 405 nm is monitored on a Thermo Max microplate reader (Molecular Devices, Menlo Park, Calif.) at room temperature (22° C.). The calculation of the amount of hydrolysis of the thiopeptolide substrate is based on E412=13600 M^−1 cm^−1 for the DTNB-derived product 3-carboxy4-nitrothiophenoxide. Assays are carried out with and without matrix metalloproteinase inhibitor compounds, and the amount of hydrolysis is compared for a determination of inhibitory activity of the test compounds.
# (§3) Several representative compounds have been evaluated for their ability to inhibit various matrix metalloproteinase enzymes. In Table I, MMP-1FL refers to full length interstitial collagenase; MMP-2FL refers to full length Gelatinase A; MMP-3CD refers to the catalytic domain of stromelysin-1; MMP-7FL refers to full length matrilysin; MMP-9FL refers to full length Gelatinase B; MMP-13CD refers to the catalytic domain of collagenase 3; and MMP-14CD refers to the catalytic domain of MMP-14. Test compounds were evaluated at various concentrations in order to determine their respective IC50 values, the micromolar concentration of compound required to cause a 50% inhibition of the catalytic activity of the respective enzyme.
# [2] = target: MMP-13CD (catalytic domain of collagenase 3) (Homo sapiens, UniProt P45452); assay: Thiopeptolide hydrolysis assay, MMP-13CD; conditions: thiopeptolide substrate, HEPES pH 7.0, 22° C.
# Excerpt: as §1, §2, §3
# [3] = target: T1, MMP-2FL (full length Gelatinase A) (Homo sapiens, UniProt P08253); assay: Thiopeptolide hydrolysis assay, MMP-2FL; conditions: thiopeptolide substrate, HEPES pH 7.0, 22° C.
# T1 sequence (P08253 110-660): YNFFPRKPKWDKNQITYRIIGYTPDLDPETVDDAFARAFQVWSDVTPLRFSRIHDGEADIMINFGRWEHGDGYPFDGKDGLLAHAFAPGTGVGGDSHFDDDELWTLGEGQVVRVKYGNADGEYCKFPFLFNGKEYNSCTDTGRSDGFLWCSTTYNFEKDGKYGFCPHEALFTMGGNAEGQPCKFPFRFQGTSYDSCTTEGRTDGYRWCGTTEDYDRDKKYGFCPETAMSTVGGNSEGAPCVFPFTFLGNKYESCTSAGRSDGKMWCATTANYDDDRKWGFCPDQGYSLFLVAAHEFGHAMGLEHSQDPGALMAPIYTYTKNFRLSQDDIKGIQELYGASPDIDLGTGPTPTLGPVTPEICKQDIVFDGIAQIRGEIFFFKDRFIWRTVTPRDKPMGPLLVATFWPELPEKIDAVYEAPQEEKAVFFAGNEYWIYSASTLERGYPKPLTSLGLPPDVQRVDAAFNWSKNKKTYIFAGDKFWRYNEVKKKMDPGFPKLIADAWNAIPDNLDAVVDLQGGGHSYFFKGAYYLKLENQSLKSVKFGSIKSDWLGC
# Excerpt: as §1, §2, §3
# [4] = target: MMP-9FL (full length Gelatinase B) (Homo sapiens, UniProt P14780); assay: Thiopeptolide hydrolysis assay, MMP-9FL; conditions: thiopeptolide substrate, HEPES pH 7.0, 22° C.
# Chain of MMP-9FL (full length Gelatinase B) (P14780 94-707, species assumed): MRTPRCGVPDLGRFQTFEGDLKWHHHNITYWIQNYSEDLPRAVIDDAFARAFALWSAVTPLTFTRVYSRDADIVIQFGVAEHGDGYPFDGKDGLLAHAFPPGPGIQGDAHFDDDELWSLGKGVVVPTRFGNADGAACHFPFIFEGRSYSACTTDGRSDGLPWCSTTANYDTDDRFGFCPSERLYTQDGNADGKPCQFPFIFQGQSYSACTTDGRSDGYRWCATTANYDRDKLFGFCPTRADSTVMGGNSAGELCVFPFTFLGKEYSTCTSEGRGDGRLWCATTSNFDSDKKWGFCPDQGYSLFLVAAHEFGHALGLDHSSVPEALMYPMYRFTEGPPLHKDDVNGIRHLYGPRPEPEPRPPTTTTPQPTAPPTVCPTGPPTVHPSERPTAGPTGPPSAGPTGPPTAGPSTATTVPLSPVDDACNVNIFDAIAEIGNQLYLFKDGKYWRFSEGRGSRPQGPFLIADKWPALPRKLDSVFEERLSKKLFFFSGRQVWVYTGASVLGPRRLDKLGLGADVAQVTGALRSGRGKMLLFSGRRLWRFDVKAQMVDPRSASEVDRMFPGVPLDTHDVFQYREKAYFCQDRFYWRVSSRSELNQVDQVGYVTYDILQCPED
# Excerpt: as §1, §2, §3
# [5] = target: MMP-3CD (catalytic domain of stromelysin-1) (Homo sapiens, UniProt P08254); assay: Thiopeptolide hydrolysis assay, MMP-3CD; conditions: thiopeptolide substrate, MES pH 6.0
# Chain of MMP-3CD (catalytic domain of stromelysin-1) (P08254 100-272 limits assumed): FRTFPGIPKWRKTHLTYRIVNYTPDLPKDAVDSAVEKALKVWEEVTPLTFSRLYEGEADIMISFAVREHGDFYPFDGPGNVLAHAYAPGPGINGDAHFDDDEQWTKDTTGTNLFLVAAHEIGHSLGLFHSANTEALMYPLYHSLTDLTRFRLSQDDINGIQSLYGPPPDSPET
# Excerpt: as §1, §2, §3
# It should be appreciated that the assay buffer used with MMP-3CD was 50 mM of 2-morpholinoethanesulfonic acid monohydrate (“MES”) at pH 6.0 rather than the HEPES buffer at pH 7.0 described above.
# [6] = target: T2, MMP-7FL (full length matrilysin) (Homo sapiens, UniProt P09237); assay: Thiopeptolide hydrolysis assay, MMP-7FL; conditions: thiopeptolide substrate, HEPES pH 7.0, 22° C.
# T2 sequence (P09237 95-267): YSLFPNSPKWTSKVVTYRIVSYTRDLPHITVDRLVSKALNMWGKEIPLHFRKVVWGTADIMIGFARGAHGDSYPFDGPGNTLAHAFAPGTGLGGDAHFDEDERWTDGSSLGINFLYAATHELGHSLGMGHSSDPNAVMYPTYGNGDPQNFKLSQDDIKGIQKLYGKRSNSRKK
# Excerpt: as §1, §2, §3
# [7] = target: T3, MMP-1FL (full length interstitial collagenase) (Homo sapiens, UniProt P03956); assay: Thiopeptolide hydrolysis assay, MMP-1FL; conditions: thiopeptolide substrate, HEPES pH 7.0, 22° C.
# T3 sequence (P03956 100-469): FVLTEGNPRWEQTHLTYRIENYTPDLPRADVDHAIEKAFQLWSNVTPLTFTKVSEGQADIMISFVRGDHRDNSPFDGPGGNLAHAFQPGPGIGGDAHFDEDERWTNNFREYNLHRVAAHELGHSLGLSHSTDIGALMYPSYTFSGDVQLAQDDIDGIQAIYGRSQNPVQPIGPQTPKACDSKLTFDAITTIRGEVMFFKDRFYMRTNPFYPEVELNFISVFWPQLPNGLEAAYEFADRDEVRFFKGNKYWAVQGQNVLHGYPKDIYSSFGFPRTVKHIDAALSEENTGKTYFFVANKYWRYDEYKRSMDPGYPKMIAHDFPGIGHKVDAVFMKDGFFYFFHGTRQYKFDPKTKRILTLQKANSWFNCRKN
# Excerpt: as §1, §2, §3
# MMP-12CD = target: T4, MMP-12CD (Homo sapiens, UniProt P39900); assay: Thiopeptolide hydrolysis assay, MMP-12CD; conditions: thiopeptolide substrate, HEPES pH 7.0, 22° C.
# T4 construct: MMP-12CD
# T4 sequence (P39900 106-263 limits assumed): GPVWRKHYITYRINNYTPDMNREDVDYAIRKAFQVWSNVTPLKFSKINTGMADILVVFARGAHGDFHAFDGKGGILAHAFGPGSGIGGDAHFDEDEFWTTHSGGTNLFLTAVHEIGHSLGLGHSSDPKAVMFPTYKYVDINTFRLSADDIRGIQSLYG
# Excerpt: as §1, §2, §3
Structure (SMILES),IC50 [1] [µM],IC50 [2] [µM],IC50 [3] [µM],IC50 [4] [µM],IC50 [5] [µM],IC50 [6] [µM],IC50 [7] [µM],IC50 (MMP-12CD) [µM]
"CC1(C)SCCN(S(=O)(=O)c2ccc(-c3ccc(Br)cc3)cc2)[C@H]1C(=O)O [Example 1, (S)-4-(4′-Bromo-biphenyl-4-sulfonyl)-2,2-dimethyl-thiomorpholine-3-carboxylic acid]",0.048,0.016,0.006,0.26,0.003,10,3.1,
"CC1(C)SCCN(S(=O)(=O)c2ccc(-c3ccc(Br)cc3)cc2)[C@H]1C(=O)NO [Example 2, (S)-4-(4′-Bromo-biphenyl-4-sulfonyl)-2,2-dimethyl-thiomorpholine-3-carboxylic acid hydroxyamide]",0.001,0.001,0.002,0.001,0.002,0.037,0.002,
"CC1(C)[C@H](C(=O)O)N(S(=O)(=O)c2ccc(-c3ccc(Br)cc3)cc2)CCS1(=O)=O [Example 3, (S)-4-(4′-Bromo-biphenyl-4-sulfonyl)-2,2-dimethyl-1,1-dioxo-thiomorpholine-3-carboxylic acid]",0.059,0.032,0.012,0.78,0.005,8.8,1.7,
"CC1(C)[C@H](C(=O)NO)N(S(=O)(=O)c2ccc(-c3ccc(Br)cc3)cc2)CCS1(=O)=O [Example 4, (S)-4-(4′-Bromo-biphenyl-4-sulfonyl)-2,2-dimethyl-1,1-dioxo-thiomorpholine-3-carboxylic acid hydroxyamide]",0.002,0.001,0.001,0.004,0.003,0.031,0.005,
"CC1(C)SCCN(S(=O)(=O)c2ccc(-c3ccc(CO)cc3)cc2)[C@H]1C(=O)O [Example 5, (S)-4-(4′-Hydroxymethyl-biphenyl-4-sulfonyl)-2,2-dimethyl-thiomorpholine-3-carboxylic acid]",0.24,0.047,0.018,0.063,0.027,10,1.5,
"CC1(C)SCCN(S(=O)(=O)c2ccc(-c3ccc4ccccc4c3)cc2)[C@H]1C(=O)O [Example 36, (S)-2,2-Dimethyl-4-(4-naphthalen-2-yl-benzenesulfonyl)-thiomorpholine-3-carboxylic acid]",0.0567,0.0108,0.00635,0.13,0.0104,31.7,10.8,0.00113

# Results, then the compound that gave them:
IC50 [1] [µM],IC50 [2] [µM],IC50 [3] [µM],IC50 [4] [µM],IC50 [5] [µM],IC50 [6] [µM],IC50 [7] [µM],IC50 (MMP-12CD) [µM],Structure (SMILES)
0.0343,0.00145,0.00135,0.0032,0.00295,2.67,1.17,0.001,"CC1(C)SCCN(S(=O)(=O)c2ccc(-c3ccc(-c4ccccc4)cc3)cc2)[C@H]1C(=O)O [Example 38, (S)-2,2-Dimethyl-4-([1,1′;4′,1″]terphenyl-4-sulfonyl)-thiomorpholine-3-carboxylic acid]"
0.67,0.16,0.115,2.78,0.0285,25,3.25,0.013,"CC1(C)SCCN(S(=O)(=O)c2ccc(-c3ccc(F)cc3F)cc2)[C@H]1C(=O)O [Example 39, (S)-4-(2′,4′-Difluoro-biphenyl-4-sulfonyl)-2,2-dimethyl-thiomorpholine-3-carboxylic acid]"
1.5,0.1,0.17,2.2,0.0094,13,,0.004,"CC1(C)SCCN(S(=O)(=O)c2ccc(-c3ccc(Oc4ccccc4)cc3)cc2)[C@H]1C(=O)O [Example 40, (S)-2,2-Dimethyl-4-(4′-phenoxy-biphenyl-4-sulfonyl)-thiomorpholine-3-carboxylic acid]"
0.128,,0.0027,0.098,0.004,,5.75,0.001,"CC1(C)SCCN(S(=O)(=O)c2ccc(-c3ccc(OC(F)(F)F)cc3)cc2)[C@H]1C(=O)O [Example 45, (S)-2,2-Dimethyl-4-(4′-trifluoromethoxy-biphenyl-4-sulfonyl)-thiomorpholine-3-carboxylic acid]"
,0.01,0.0061,0.14,0.0074,9,5.4,0.00125,"CCc1ccc(-c2ccc(S(=O)(=O)N3CCSC(C)(C)[C@@H]3C(=O)O)cc2)cc1 [Example 47, (S)-4-(4′-Ethyl-biphenyl-4-sulfonyl)-2,2-dimethyl-thiomorpholine-3-carboxylic acid]"
0.037,2.04,1.55,25.8,0.775,,,,"COc1ccc(-c2ccc(S(=O)(=O)N3CCSC(C)(C)[C@@H]3C(=O)O)cc2)cc1C=O [Example 48, (S)-4-(3′-Formyl-4′-methoxy-biphenyl-4-sulfonyl)-2,2-dimethyl-thiomorpholine-3-carboxylic acid]"
0.19,0.013,0.024,0.17,0.03,,11.3,0.0103,CN(C)c1ccc(-c2ccc(S(=O)(=O)N3CCSC(C)(C)[C@@H]3C(=O)O)cc2)cc1 [Example 54]
,5.3,5.2,30,1.1,,,,"CC1(C)SCCN(S(=O)(=O)c2ccc(-c3cccc(OC(F)(F)F)c3)cc2)[C@H]1C(=O)O [Example 59, (S)-2,2-Dimethyl-4-(3′-trifluoromethoxy-biphenyl-4-sulfonyl)-thiomorpholine-3-carboxylic acid]"
,2.9,3.4,49,0.763,,,,"CC(=O)c1cccc(-c2ccc(S(=O)(=O)N3CCSC(C)(C)[C@@H]3C(=O)O)cc2)c1 [Example 61, (S)-4-(3′-Acetyl-biphenyl-4-sulfonyl)-2,2-dimethyl-thiomorpholine-3-carboxylic acid]"
